In ChEMBL document CHEMBL4373729, “Natural dimers of coumarin, chalcones, and resveratrol and the link between structure and pharmacology” (Eur J Med Chem, 2019):
≈ marks a conversion by molar mass, not a printed value. Blank lines part the entries; values can stand above or below the compound they belong to.

How the values were obtained:
Plasmodium falciparum = experiment: Antiplasmodial activity against multidrug-resistant Plasmodium falciparum K1 by [3H]-hypoxanthine incorporation assay; assay type: functional, organism-based
Cathepsin L2 = biological target: T1, Cathepsin L2 (Homo sapiens, UniProt O60911); experiment: Inhibition of recombinant human cathepsin V using Z-Phe-Arg-7-amido-4-methylcoumarin as substrate by fluorescence assay
T1 sequence (O60911 whole entry): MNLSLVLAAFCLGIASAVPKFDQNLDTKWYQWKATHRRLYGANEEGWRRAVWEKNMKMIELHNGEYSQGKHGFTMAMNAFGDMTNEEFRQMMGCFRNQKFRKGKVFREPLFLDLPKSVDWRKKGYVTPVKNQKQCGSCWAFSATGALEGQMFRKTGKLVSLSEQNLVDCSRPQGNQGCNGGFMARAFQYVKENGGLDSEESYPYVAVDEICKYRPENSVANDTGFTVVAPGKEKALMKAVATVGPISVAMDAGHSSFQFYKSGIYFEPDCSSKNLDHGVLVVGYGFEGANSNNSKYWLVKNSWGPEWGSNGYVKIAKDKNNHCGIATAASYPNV

[1] = biological target: T2, DNA topoisomerase 2-alpha (Homo sapiens, UniProt P11388); experiment: Inhibition of topoisomerase 2 (unknown origin)
T2 sequence (P11388 whole entry): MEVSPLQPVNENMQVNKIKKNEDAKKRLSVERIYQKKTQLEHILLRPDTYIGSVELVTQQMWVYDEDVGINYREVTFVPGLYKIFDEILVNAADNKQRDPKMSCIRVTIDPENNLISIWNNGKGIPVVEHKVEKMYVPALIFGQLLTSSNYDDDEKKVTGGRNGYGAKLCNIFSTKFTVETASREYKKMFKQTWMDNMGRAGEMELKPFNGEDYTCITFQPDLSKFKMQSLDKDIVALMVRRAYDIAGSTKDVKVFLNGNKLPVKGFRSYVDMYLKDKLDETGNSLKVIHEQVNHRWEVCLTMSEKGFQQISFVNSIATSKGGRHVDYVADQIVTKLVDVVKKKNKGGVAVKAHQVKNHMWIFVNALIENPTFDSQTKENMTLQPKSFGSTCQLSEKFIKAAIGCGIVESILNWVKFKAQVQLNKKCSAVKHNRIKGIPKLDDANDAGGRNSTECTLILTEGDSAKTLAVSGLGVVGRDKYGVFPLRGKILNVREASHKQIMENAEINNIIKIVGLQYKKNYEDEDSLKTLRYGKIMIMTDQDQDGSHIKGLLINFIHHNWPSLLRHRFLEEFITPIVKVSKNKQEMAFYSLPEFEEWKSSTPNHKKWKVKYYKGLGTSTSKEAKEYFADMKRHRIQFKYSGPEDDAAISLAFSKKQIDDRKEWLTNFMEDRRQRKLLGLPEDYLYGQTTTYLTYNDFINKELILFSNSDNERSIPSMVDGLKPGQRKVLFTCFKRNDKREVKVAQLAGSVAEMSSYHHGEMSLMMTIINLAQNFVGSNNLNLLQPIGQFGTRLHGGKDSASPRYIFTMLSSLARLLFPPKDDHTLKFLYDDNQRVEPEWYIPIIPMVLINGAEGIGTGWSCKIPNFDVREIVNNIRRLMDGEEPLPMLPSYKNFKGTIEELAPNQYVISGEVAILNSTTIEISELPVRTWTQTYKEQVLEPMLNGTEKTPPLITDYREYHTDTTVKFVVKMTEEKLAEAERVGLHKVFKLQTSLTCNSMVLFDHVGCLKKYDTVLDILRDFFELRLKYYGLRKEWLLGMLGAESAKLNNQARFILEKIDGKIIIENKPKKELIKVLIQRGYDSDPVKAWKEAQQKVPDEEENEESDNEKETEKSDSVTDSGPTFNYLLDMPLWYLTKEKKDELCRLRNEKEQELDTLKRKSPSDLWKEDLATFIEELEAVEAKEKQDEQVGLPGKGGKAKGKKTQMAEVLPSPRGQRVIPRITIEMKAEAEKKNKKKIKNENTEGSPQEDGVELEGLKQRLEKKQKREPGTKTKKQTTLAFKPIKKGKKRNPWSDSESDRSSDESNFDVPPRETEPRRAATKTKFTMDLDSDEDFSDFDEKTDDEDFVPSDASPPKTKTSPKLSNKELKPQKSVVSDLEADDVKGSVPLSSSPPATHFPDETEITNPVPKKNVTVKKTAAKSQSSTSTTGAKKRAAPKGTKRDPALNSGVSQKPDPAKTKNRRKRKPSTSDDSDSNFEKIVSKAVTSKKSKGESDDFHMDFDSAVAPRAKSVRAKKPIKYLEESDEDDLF

[2] = biological target: T2, DNA topoisomerase 2-alpha; experiment: Inhibition of human topoisomerase 2 by fluorescence method
Alpha glucosidase [3] = biological target: T3, Alpha glucosidase (Homo sapiens, UniProt O43451+P10253+P14410+Q2M2H8); experiment: Inhibition of alpha-glucosidase (unknown origin); assay type: protein assay
[4] = biological target: Human immunodeficiency virus type 1 reverse transcriptase (Human immunodeficiency virus 1, UniProt Q72547); experiment: Inhibition of HIV-1 reverse transcriptase
[5] = biological target: Glucagon-like peptide 1 receptor (Homo sapiens, UniProt P43220); experiment: Agonist activity at human GLP1 receptor
Glucagon-like peptide 1 receptor, sequence (P43220 whole entry): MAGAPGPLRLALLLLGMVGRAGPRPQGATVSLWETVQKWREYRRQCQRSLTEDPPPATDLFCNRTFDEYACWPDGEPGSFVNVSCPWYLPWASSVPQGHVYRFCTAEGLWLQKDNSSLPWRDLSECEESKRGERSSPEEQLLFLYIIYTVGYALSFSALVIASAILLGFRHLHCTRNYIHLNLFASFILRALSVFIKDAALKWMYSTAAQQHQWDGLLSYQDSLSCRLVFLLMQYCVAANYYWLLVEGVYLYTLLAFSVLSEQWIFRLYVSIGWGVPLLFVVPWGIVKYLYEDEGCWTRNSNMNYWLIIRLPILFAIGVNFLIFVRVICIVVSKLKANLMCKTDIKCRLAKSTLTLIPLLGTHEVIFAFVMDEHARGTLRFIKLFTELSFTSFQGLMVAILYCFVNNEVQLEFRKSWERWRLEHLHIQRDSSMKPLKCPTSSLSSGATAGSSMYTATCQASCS

NCI-H187 = experiment: Cytotoxicity against human NCI-H187 cells assessed as reduction in cell viability; assay type: functional, cell-based
KB = experiment: Cytotoxicity against human KB cells assessed as reduction in cell viability; assay type: functional, cell-based
Saccharomyces cerevisiae = experiment: Inhibition of yeast alpha-glucosidase using p-nitrophenyl-alpha-D-glucopyranoside as substarte preincubated for 0.5 hrs followed by substrate addition measured after 0.5 hrs relative to control; conditions: concentration not given here
[6] = Inhibition of yeast alpha-glucosidase using p-nitrophenyl-alpha-D-glucopyranoside as substarte preincubated for 0.5 hrs followed by substrate addition measured after 0.5 hrs; parameters: species or system Saccharomyces cerevisiae
Alpha glucosidase [7] = biological target: T3, Alpha glucosidase; experiment: Inhibition of alpha-glucosidase (unknown origin) using 4-nitrophenyl alpha-D-glucopyranoside as substarte preincubated for 10 mins followed by substrate addition measured after 30 mins; assay type: protein assay

Structure (SMILES): COc1cc(OC)c2c(c1OC)C=C(C(=O)c1ccccc1)C1(C=C(c3ccccc3)Oc3c(OC)c(OC)cc(OC)c31)O2 (stereo unspecified)
IC50 (Plasmodium falciparum): 3.02 to 4.21 µg/mL (≈ 4.96 to 6.92 µM)

Structure (SMILES): C=C(C)C(COc1c2ccoc2cc2oc(=O)ccc12)OC(C)(C)C(O)COc1c2occc2c(OC)c2ccc(=O)oc12 (stereo unspecified)
IC50 (Alpha glucosidase [3]): 8.8 to 9.8 µM

Structure (SMILES): COc1cc(OC)c2c(c1OC)O[C@H]1c3c(OC)cc(OC)c(OC)c3O[C@H](c3ccccc3)[C@H]1[C@@H]2/C=C/c1ccccc1 [DEPENDENSIN]
IC50 (Plasmodium falciparum): 3.02 to 4.21 µg/mL (≈ 5.06 to 7.06 µM)

Structure (SMILES): COc1cc([C@H]2[C@](NC(=O)c3ccc(NC(=O)OC(C)(C)C)cc3)(C(=O)O)[C@@H](c3ccc(OC(=O)c4cccs4)c(OC)c3)[C@]2(NC(=O)c2ccc(NC(=O)OC(C)(C)C)cc2)C(=O)O)ccc1OC(=O)c1cccs1
EC50 [5]: 0.847 µM

Structure (SMILES): COc1cc([C@H]2[C@](NC(=O)c3ccc(NC(=O)C(C)C)cc3)(C(=O)O)[C@@H](c3ccc(OC(=O)c4cccs4)c(OC)c3)[C@]2(NC(=O)c2ccc(NC(=O)C(C)C)cc2)C(=O)O)ccc1OC(=O)c1cccs1
EC50 [5]: 0.203 µM

Structure (SMILES): C=CC(C)(C)c1c2c(c(O)c3c1OC(C)(C)C=C3)C=C([C@H]1CC(C)(C)Oc3c1c(O)c1ccc(=O)oc1c3C(C)(C)C=C)CO2
IC50 (NCI-H187): 7.1 µg/mL (≈ 11.6 µM)
IC50 (KB): 5.95 µg/mL (≈ 9.74 µM)

Structure (SMILES): COc1cc(OC)c(OC)c2c1C[C@H]1[C@@H](/C=C/c3ccccc3)c3c(OC)cc(OC)c(OC)c3O[C@@]1(c1ccccc1)O2
IC50 (Plasmodium falciparum): 3.02 to 4.21 µg/mL (≈ 5.06 to 7.06 µM)

Structure (SMILES): COc1cc2cc(Oc3cc(O[C@@H]4O[C@H](CO)[C@@H](O)[C@H](O)[C@H]4O[C@@H]4O[C@H](CO)[C@@H](O)[C@H](O)[C@H]4O)c4ccc(=O)oc4c3)c(=O)oc2cc1O
IC50 (Alpha glucosidase [7]): 231 µg/mL (≈ 334 µM)

Structure (SMILES): COc1cc(OC)c([C@@H]2Oc3c(OC)c(OC)cc(OC)c3[C@H](/C=C/c3ccccc3)[C@@H]2C(=O)c2ccccc2)c(O)c1OC
IC50 (Plasmodium falciparum): 3.02 to 4.21 µg/mL (≈ 4.93 to 6.87 µM)

Structure (SMILES): COc1cc(OC)c([C@@H]2Oc3c(OC)c(OC)cc(OC)c3[C@@H](/C=C/c3ccccc3)[C@H]2C(=O)c2ccccc2)c(O)c1OC
IC50 (Plasmodium falciparum): 3.02 to 4.21 µg/mL (≈ 4.93 to 6.87 µM)

Continued, values first:

IC50 (Cathepsin L2): 0.42 µM
Structure (SMILES): O=C(c1ccc(O)cc1O)[C@H]1[C@H](c2ccc(O)cc2)c2cc(O)c(O)cc2[C@H](O)[C@]1(O)C(=O)c1ccc(O)cc1

IC50 [1]: 2.1 µM
IC50 [2]: 15.3 µM
Structure (SMILES): O=C(/C=C/c1ccc(O)cc1)c1ccc2c(c1O)[C@H](C(=O)c1ccc(O)cc1O)[C@@H](c1ccc(O)cc1)O2

IC50 (Cathepsin L2): 1.4 µM
Structure (SMILES): O=C(c1ccc(O)cc1O)[C@@H]1[C@H](c2ccc(O)cc2)c2cc(O)c(O)cc2[C@H](O)[C@@H]1C(=O)c1ccc(O)cc1

IC50 [4]: 8 µM
Structure (SMILES): Oc1ccc(/C=C/c2cc(O)c3c(-c4cc(O)cc(O)c4)c(-c4ccc(O)cc4)oc3c2)cc1

IC50 (Cathepsin L2): 0.7 µM
Structure (SMILES): O=C1c2ccc(O)cc2OC2c3cc(O)c(O)cc3[C@@H](c3ccc(O)cc3)[C@@H](C(=O)c3ccc(O)cc3O)C12 (stereo partly specified)

IC50 (Alpha glucosidase [3]): 8.8 to 9.8 µM
Structure (SMILES): C=C(C)C(COc1c2occc2cc2ccc(=O)oc12)OC(C)(C)[C@H](O)COc1c2ccoc2cc2oc(=O)ccc12 (stereo partly specified)

IC50 [2]: 14.5 µM
Structure (SMILES): O=C(/C=C/c1ccc(O)cc1)c1cc2c(cc1O)O[C@H](c1ccc(O)cc1)[C@H]2C(=O)c1ccc(O)cc1O

inhibition (Saccharomyces cerevisiae): > 65%
IC50 [6]: 16.3 µM
Structure (SMILES): Cc1c(-c2c(O)ccc3c(C)cc(=O)oc23)c(=O)oc2cc(O)ccc12

IC50 (Alpha glucosidase [7]): 760 µg/mL (≈ 1570 µM)
Structure (SMILES): O=c1ccc2ccc(O)c(-c3c(OC4O[C@H](CO)[C@@H](O)[C@H](O)[C@H]4O)ccc4ccc(=O)oc34)c2o1 (stereo partly specified)

IC50 (Alpha glucosidase [7]): 780 µg/mL (≈ 1210 µM)
Structure (SMILES): O=c1ccc2ccc(Oc3cc4ccc(O)c(-c5c(OC6O[C@H](CO)[C@@H](O)[C@H](O)[C@H]6O)ccc6ccc(=O)oc56)c4oc3=O)cc2o1 (stereo partly specified)

inhibition (Saccharomyces cerevisiae): > 65%
IC50 [6]: 36.8 µM
Structure (SMILES): Cc1cc(=O)oc2cc(O)c(-c3c(C)c4ccc(O)cc4oc3=O)cc12

IC50 (Alpha glucosidase [3]): 8.8 to 9.8 µM
Structure (SMILES): C=C(C)C(COc1c2occc2c(OC)c2ccc(=O)oc12)OC(C)(C)[C@H](O)COc1c2ccoc2cc2oc(=O)ccc12 (stereo partly specified)
